# In patent publication US12371436B2, “Substituted benzodiazoliums as ENaC inhibitors” (ENTERPRISE THERAPEUTICS LIMITED, priority 2016, dated 2025):
# Key:
# ENaC = target: T1, ENaC (Homo sapiens, UniProt P37088+P51168+P51170); assay: Short circuit current assay to determine ENaC blocker potency in human bronchial epithelial cells; assay type: cell-based; details: 50% inhibition of total amiloride-sensitive ISC, apical addition, read-out: Averages.ENaC IC50 (nM) Avg
# T1 construct: host or cells: primary human bronchial epithelial cells (HBECs) differentiated at air-liquid interface
# T1 sequence (P37088 1-669): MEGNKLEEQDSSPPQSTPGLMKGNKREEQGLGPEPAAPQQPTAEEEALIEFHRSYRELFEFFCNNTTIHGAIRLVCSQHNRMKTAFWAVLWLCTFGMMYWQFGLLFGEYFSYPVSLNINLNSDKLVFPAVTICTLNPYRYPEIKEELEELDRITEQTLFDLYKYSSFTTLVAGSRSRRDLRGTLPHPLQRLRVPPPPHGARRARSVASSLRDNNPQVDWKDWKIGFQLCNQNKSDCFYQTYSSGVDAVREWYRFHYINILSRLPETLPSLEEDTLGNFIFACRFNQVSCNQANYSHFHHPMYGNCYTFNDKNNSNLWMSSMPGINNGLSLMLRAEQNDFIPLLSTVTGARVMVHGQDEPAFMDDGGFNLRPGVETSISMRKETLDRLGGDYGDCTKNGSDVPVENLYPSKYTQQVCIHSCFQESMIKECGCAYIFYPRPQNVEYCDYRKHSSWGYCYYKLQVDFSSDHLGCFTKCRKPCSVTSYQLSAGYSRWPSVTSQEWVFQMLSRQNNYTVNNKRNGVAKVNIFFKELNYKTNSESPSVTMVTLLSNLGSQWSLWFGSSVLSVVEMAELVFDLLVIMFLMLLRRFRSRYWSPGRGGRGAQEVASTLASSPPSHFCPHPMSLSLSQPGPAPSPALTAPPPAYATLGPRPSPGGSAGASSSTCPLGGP
# T1 sequence (P51168 1-640): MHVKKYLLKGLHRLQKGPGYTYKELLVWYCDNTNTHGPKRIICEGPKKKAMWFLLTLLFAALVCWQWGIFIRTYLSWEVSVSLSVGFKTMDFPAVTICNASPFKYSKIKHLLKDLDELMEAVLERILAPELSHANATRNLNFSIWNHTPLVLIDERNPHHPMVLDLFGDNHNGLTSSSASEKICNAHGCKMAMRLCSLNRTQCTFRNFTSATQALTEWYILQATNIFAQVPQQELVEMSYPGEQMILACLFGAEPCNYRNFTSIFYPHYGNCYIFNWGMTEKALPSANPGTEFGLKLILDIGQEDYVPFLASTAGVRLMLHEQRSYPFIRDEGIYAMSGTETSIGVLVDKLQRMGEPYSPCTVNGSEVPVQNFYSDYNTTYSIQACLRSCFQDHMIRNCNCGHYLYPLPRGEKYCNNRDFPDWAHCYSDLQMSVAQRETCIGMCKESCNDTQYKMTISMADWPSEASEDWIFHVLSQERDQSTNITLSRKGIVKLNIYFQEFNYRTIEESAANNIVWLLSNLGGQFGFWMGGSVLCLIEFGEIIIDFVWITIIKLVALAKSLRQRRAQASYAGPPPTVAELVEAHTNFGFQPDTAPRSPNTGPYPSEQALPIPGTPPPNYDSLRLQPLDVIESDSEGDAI
# T1 sequence (P51170 1-649): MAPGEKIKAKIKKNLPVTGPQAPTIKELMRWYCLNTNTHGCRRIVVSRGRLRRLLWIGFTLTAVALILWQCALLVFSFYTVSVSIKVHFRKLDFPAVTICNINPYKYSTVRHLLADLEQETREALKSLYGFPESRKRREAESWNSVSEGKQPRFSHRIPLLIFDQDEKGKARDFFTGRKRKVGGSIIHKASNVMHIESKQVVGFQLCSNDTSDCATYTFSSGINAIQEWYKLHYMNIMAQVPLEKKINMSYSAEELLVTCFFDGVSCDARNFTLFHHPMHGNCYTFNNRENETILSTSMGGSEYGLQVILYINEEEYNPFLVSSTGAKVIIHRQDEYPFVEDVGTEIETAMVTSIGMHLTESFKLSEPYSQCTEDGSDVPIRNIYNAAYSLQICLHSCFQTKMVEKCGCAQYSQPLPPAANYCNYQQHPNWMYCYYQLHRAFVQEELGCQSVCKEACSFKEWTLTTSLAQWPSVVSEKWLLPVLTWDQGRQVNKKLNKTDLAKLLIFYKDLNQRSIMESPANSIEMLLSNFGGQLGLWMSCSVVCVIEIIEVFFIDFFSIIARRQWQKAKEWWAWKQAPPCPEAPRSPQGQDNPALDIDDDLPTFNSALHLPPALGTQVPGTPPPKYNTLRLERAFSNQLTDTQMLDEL
# In short: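 Primary human bronchial epithelial cells at air-liquid interface (days 14–21) were voltage-clamped at 0 mV in Ussing chambers (Ringer, pH 7.4, 37° C.). Compounds were added apically as cumulative concentrations, then 10 μM amiloride. IC50 was taken as 50% inhibition of amiloride-sensitive ISC.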
# [1] = Bronchoalveolar lavage (BAL) procedure: compound levels after intratracheal administration; assay type: in vivo; details: bronchoalveolar lavage fluid (BAL), other: intratracheal, 0.1 mg/kg, rat, 0.1 mg/mL solution in 5% dextrose, 1 mL/Kg, BAL 6 hours after administration, LC/MS/MS
# Method: Example 69—Bronchoalveolar Lavage (BAL) Procedure A 0.1 mg/mL solution of ENaC inhibitor in 5% dextrose was administered intratracheally to a rat weighing 225-250 g. A volume of 1 mL/Kg was used. After 6 hours, lungs were lavaged with 3×4 mL of sterile saline. A 1 mL aliquot was subsequently snap frozen. Lungs were excised, weighed and snap frozen. Compound levels in the BAL and lung tissue were subsequently determined using LC/MS/MS bioanalysis.
SMILES,IC50 (ENaC) [nM],concentration at 6 h [1] [ng/mL]
"CCn1c(CNC(=O)c2nc3cc[nH]c3nc2N)[n+](CC)c2ccc(C(=O)N[C@H]3CC[C@H](N(C[C@H](O)[C@@H](O)[C@H](O)[C@H](O)CO)C[C@H](O)[C@@H](O)[C@H](O)[C@H](O)CO)CC3)cc21 [Example 55, 2-[({3-amino-5H-pyrrolo[2,3-b]pyrazin-2-yl}formamido)methyl]-1,3-diethyl-6-{[(1r,4r)-4-{bis[(2S,3R,4R,5R)-2,3,4,5,6-pentahydroxyhexyl]amino}cyclohexyl]carbamoyl}-1H-1,3-benzodiazol-3-ium]",78,284
"CCn1c(CNC(=O)c2nc3cc[nH]c3nc2N)[n+](CC)c2ccc(C(=O)NCCOCCOCCOCCN(C[C@H](O)[C@@H](O)[C@H](O)[C@H](O)CO)C[C@H](O)[C@@H](O)[C@H](O)[C@H](O)CO)cc21 [Example 59, 2-[({3-amino-5H-pyrrolo[2,3-b]pyrazin-2-yl}formamido)methyl]-1,3-diethyl-5-{[(14S,15R,16R,17R)-14,15,16,17,18-pentahydroxy-12-[(2S,3R,4R,5R)-2,3,4,5,6-pentahydroxyhexyl]-3,6,9-trioxa-12-azaoctadecan-1-yl]carbamoyl}-1H-1,3-benzodiazol-3-ium]",171,197
"CCn1c(CNC(=O)c2nc3cc[nH]c3nc2N)[n+](CC)c2ccc(C(=O)N(C)CCCN(C[C@H](O)[C@@H](O)[C@H](O)[C@H](O)CO)C[C@H](O)[C@@H](O)[C@H](O)[C@H](O)CO)cc21 [Example 57, 2-[({3-amino-5H-pyrrolo[2,3-b]pyrazin-2-yl}formamido)methyl]-6-[(3-{bis[(2S,3R,4R,5R)-2,3,4,5,6-pentahydroxyhexyl]amino}propyl)(methyl)carbamoyl]-1,3-diethyl-1H-1,3-benzodiazol-3-ium]",36,283
"CCn1c(CNC(=O)c2nc3cc[nH]c3nc2N)[n+](CC)c2ccc(C(=O)NCCCCc3ccc(CCC(NCCCN(C[C@H](O)[C@@H](O)[C@H](O)[C@H](O)CO)C[C@H](O)[C@@H](O)[C@H](O)[C@H](O)CO)C(N)=O)cc3)cc21 (stereo partly drawn) [Example 62, 2-[({3-amino-5H-pyrrolo[2,3-b]pyrazin-2-yl}formamido)methyl]-6-{[4-(4-{3-[(3-{bis[(2S,3R,4R,5R)-2,3,4,5,6-pentahydroxyhexyl]amino}propyl)amino]-3-carbamoylpropyl}phenyl)butyl]carbamoyl}-1,3-diethyl-1H-1,3-benzodiazol-3-ium]",24,140
"CCn1c(CNC(=O)c2nc3cc[nH]c3nc2N)[n+](CC)c2ccc(C(=O)N[C@H]3CC[C@@H](N(C[C@H](O)[C@@H](O)[C@H](O)[C@H](O)CO)C[C@H](O)[C@@H](O)[C@H](O)[C@H](O)CO)CC3)cc21 [Example 56, 2-[({3-amino-5H-pyrrolo[2,3-b]pyrazin-2-yl}formamido)methyl]-1,3-diethyl-6-{[(1s,4s)-4-{bis[(2S,3R,4R,5R)-2,3,4,5,6-pentahydroxyhexyl]amino}cyclohexyl]carbamoyl}-1H-1,3-benzodiazol-3-ium]",15,283
"CCn1c(CNC(=O)c2nc3cc[nH]c3nc2N)[n+](CC)c2ccc(C(=O)NCC[C@H](NCCCN(C[C@H](O)[C@@H](O)[C@H](O)[C@H](O)CO)C[C@H](O)[C@@H](O)[C@H](O)[C@H](O)CO)C(N)=O)cc21 [Example 61, 2-[({3-amino-5H-pyrrolo[2,3-b]pyrazin-2-yl}formamido)methyl]-6-{[(3S)-3-[(3-{bis[(2S,3R,4R,5R)-2,3,4,5,6-pentahydroxyhexyl]amino}propyl)amino]-3-carbamoylpropyl]carbamoyl}-1,3-diethyl-1H-1,3-benzodiazol-3-ium]",43,167
"CCn1c(CNC(=O)c2nc3cc[nH]c3nc2N)[n+](CC)c2ccc(C(=O)N3CC[C@H](N(C[C@H](O)[C@@H](O)[C@H](O)[C@H](O)CO)C[C@H](O)[C@@H](O)[C@H](O)[C@H](O)CO)C3)cc21 [Example 54, 2-[({3-amino-5H-pyrrolo[2,3-b]pyrazin-2-yl}formamido)methyl]-6-[(3S)-3-{bis[(2S,3R,4R,5R)-2,3,4,5,6-pentahydroxyhexyl]amino}pyrrolidine-1-carbonyl]-1,3-diethyl-1H-1,3-benzodiazol-3-ium]",49,139
"CCn1c(CNC(=O)c2nc3cc[nH]c3nc2N)[n+](CC)c2ccc(C(=O)N3CCC(N(C[C@H](O)[C@@H](O)[C@H](O)[C@H](O)CO)C[C@H](O)[C@@H](O)[C@H](O)[C@H](O)CO)CC3)cc21 [Example 50, 2-[({3-amino-5H-pyrrolo[2,3-b]pyrazin-2-yl}formamido)methyl]-6-(4-{bis[(2S,3R,4R,5R)-2,3,4,5,6-pentahydroxyhexyl]amino}piperidine-1-carbonyl)-1,3-diethyl-1H-1,3-benzodiazol-3-ium]",35,260
"CCn1c(CNC(=O)c2nc3cc[nH]c3nc2N)[n+](CC)c2ccc(C(=O)NCCc3ccc(-c4ccc(CCN(C[C@H](O)[C@@H](O)[C@H](O)[C@H](O)CO)C[C@H](O)[C@@H](O)[C@H](O)[C@H](O)CO)cc4)cc3)cc21 [Example 60, 2-[({3-amino-5H-pyrrolo[2,3-b]pyrazin-2-yl}formamido)methyl]-6-({2-[4′-(2-{bis[(2S,3R,4R,5R)-2,3,4,5,6-pentahydroxyhexyl]amino}ethyl)-[1,1′-biphenyl]-4-yl]ethyl}carbamoyl)-1,3-diethyl-1H-1,3-benzodiazol-3-ium]",22,176
